Results on ten compounds are retold here after ChEMBL document CHEMBL1201862, “PubChem BioAssay data set” (2004).

The structures appear in SMILES notation.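 A five-concentration, 48-hour dose response in 96-well plates underlies each endpoint, interpolated linearly between surrounding concentrations. The concentration for 50% growth inhibition is given as GI50.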 Activity calls are given as the source filed them. No stated cut-off is given here; in the data, active = GI50 up to about 1.1 µM and inactive = higher. Where only a bound is given, the exact number is not on record here.

Some test systems named below: Hs-578T; Malme-3M; MDA-MB-231; NCI-H460; U-251; OVCAR-8; ACHN; MCF7; SW-620; K562; RXF 393; OVCAR-4; UACC-62; SK-MEL-28; OVCAR-5; HCT-15; A549; KM12; SK-MEL-5.
Holding throughout (assay): NCI anticancer screen, dose series, 48 h

Turning to `CC1CCC2(CC1)N=C1CCC(C)CC1C1(CCC(C)CC1)N2` (configuration not stated), the GI50 was > 100 µM (inactive) with Hs-578T; > 100 µM (inactive) in the test on Malme-3M; > 100 µM (inactive) in the test on MDA-MB-231; > 100 µM (inactive) in the test with NCI-H460; 78.7 µM (inactive) with U-251; > 100 µM (inactive) in the test on OVCAR-8. Besides, the GI50 in the test on ACHN is > 100 µM (inactive); in the test on MCF7 it was > 100 µM (inactive); with SW-620, 79.3 µM (inactive); in the test with K562 it was 30.4 µM (inactive); with RXF 393 it was > 100 µM (inactive); in the test with OVCAR-4, > 100 µM (inactive). The GI50 was > 100 µM (inactive) in the test with UACC-62; > 100 µM (inactive) in the test with SK-MEL-28; > 100 µM (inactive) in the test on OVCAR-5; 84.7 µM with HCT-15; > 100 µM (inactive) in the test with A549; > 100 µM (inactive) in the test on KM12. Besides, in the test on SK-MEL-5, the GI50 is 29.7 µM (inactive).

In the case of `O=CC1OC(=O)c2cc(O)c(O)c(O)c2-c2c(cc(O)c(O)c2O)C(=O)OC1C1OC(=O)c2cc(O)c(O)c(O)c2-c2c(O)c(O)c3oc(=O)c4c(c(O)c(O)c5oc(=O)c2c3c54)-c2c(cc(O)c(O)c2O)C(=O)OCC1O` (configuration not stated), the GI50 with Hs-578T was 44.7 µM (inactive); in the test on Malme-3M, 94.4 µM (inactive); in the test on MDA-MB-231, 13.9 µM (inactive); in the test on NCI-H460 it was 20.7 µM (inactive); with U-251 it was 17.9 µM (inactive); in the test on OVCAR-8 it was 19.3 µM (inactive). Further, the GI50 in the test with ACHN was 35.2 µM (inactive); with MCF7, 19.6 µM (inactive); with SW-620, 19.3 µM (inactive); in the test with K562 it was 26.7 µM (inactive); in the test on RXF 393, 57 µM (inactive); with OVCAR-4 it was 14.2 µM (inactive). In addition, the GI50 with UACC-62 was 29.4 µM (inactive); in the test on SK-MEL-28, > 100 µM (inactive); in the test on OVCAR-5, 29.6 µM (inactive); with HCT-15 it was 15.7 µM; in the test with A549 it was 24.9 µM (inactive); in the test on KM12, 20.3 µM (inactive). For the same compound, the GI50 with SK-MEL-5 is 18.2 µM (inactive).

Regarding `COc1ccccc1N1C(=O)/C(=C\c2cccc(Oc3ccccc3)c2)SC1c1ccccc1` (configuration not stated), the GI50 in the test with Hs-578T is 39.4 µM (inactive); in the test with Malme-3M, 37.6 µM (inactive); with MDA-MB-231, > 100 µM (inactive); with NCI-H460, 49 µM (inactive); in the test with U-251, 38.4 µM (inactive); with OVCAR-8 it was 31.3 µM (inactive). The GI50 in the test with ACHN is 35.5 µM (inactive); in the test with MCF7, 21.5 µM (inactive); in the test on SW-620 it was 17.8 µM (inactive); in the test with K562 it was 15 µM (inactive); in the test on RXF 393, 56.9 µM (inactive); with OVCAR-4, 30.6 µM (inactive). Also, the GI50 was 5.75 µM (inactive) with UACC-62; 46.9 µM (inactive) in the test on SK-MEL-28; > 100 µM (inactive) with OVCAR-5; 47.2 µM with HCT-15; 34.3 µM (inactive) with A549; 42.6 µM (inactive) with KM12. In addition, the GI50 in the test on SK-MEL-5 was 14.4 µM (inactive).

Turning to `O=C(NCCCCCCCCNC(=O)c1cc(-c2ccccc2)nc2ccccc12)c1cc(-c2ccccc2)nc2ccccc12`, the GI50 in the test with Hs-578T was 28.7 µM (inactive); in the test on Malme-3M, > 100 µM (inactive); with MDA-MB-231, > 100 µM (inactive); in the test with NCI-H460, > 100 µM (inactive); with U-251, 35.3 µM (inactive); with OVCAR-8 it was 94 µM (inactive). Besides, the GI50 was > 100 µM (inactive) in the test with ACHN; > 100 µM (inactive) in the test on MCF7; > 100 µM (inactive) with SW-620; > 100 µM (inactive) in the test with K562; 2.48 µM (inactive) in the test with RXF 393; > 100 µM (inactive) in the test with OVCAR-4. In addition, the GI50 with UACC-62 is > 100 µM (inactive); in the test on SK-MEL-28, > 100 µM (inactive); in the test with OVCAR-5, > 100 µM (inactive); in the test with HCT-15 it was above 100 µM; with A549, > 100 µM (inactive); with SK-MEL-5 it was > 100 µM (inactive).

On to `C=C(C)C1Cc2c(cc(OC)c3c(=O)c4cccc(O)c4oc23)O1` (configuration not stated), for which the GI50 in the test with Hs-578T was 25.6 µM (inactive); with Malme-3M it was 25.2 µM (inactive); with MDA-MB-231 it was 23.9 µM (inactive); in the test with NCI-H460, 28.6 µM (inactive); in the test on U-251, 16.8 µM (inactive); with OVCAR-8 it was 21.6 µM (inactive). The GI50 was 18.2 µM (inactive) with ACHN; 0.024 µM (active) in the test on MCF7; 53.1 µM (inactive) with SW-620; > 100 µM (inactive) in the test with K562; 19.4 µM (inactive) in the test on RXF 393; 18.7 µM (inactive) in the test on OVCAR-4. Besides, the GI50 with UACC-62 was 18 µM (inactive); with SK-MEL-28, 25.5 µM (inactive); in the test on OVCAR-5, 72.9 µM (inactive); in the test on HCT-15, 47.6 µM; in the test on A549, 31.8 µM (inactive); in the test on KM12, 46.5 µM (inactive). The GI50 in the test with SK-MEL-5 is 16.5 µM (inactive).

Turning to `COc1ccc2oc(=O)cc(C)c2c1`, the GI50 with Hs-578T, with Malme-3M, with MDA-MB-231, in the test with NCI-H460, in the test on U-251 and in the test on OVCAR-8 was > 100 µM (inactive) each time. Besides, the GI50 in the test on ACHN, in the test on MCF7, with SW-620, with K562, in the test on RXF 393 and in the test with OVCAR-4 was > 100 µM (inactive) throughout. Moreover, the GI50 in the test with UACC-62, in the test on SK-MEL-28, with OVCAR-5, with A549, in the test with KM12 and in the test on SK-MEL-5 was > 100 µM (inactive) in each case.

Turning to `O=C1O[C@H]2[C@H](O)[C@@H](OC(=O)c3cc(O)c(O)c4c3[C@@H]3C1=CC(=O)C(O)(O)C3(O)O4)[C@H](OC(=O)c1cc(O)c(O)c(O)c1)O[C@@H]2CO` (some centres not stated) [FUROSIN], the GI50 is > 100 µM (inactive) in the test on Hs-578T; > 100 µM (inactive) in the test with Malme-3M; > 100 µM (inactive) with MDA-MB-231; 64.1 µM (inactive) in the test with NCI-H460; > 100 µM (inactive) in the test with U-251; 79.1 µM (inactive) with OVCAR-8. The GI50 is 41.6 µM (inactive) in the test on ACHN; > 100 µM (inactive) in the test on MCF7; > 100 µM (inactive) with SW-620; 38.1 µM (inactive) in the test with K562; > 100 µM (inactive) with RXF 393; > 100 µM (inactive) in the test with OVCAR-4. For the same compound, the GI50 was 75.7 µM (inactive) in the test on UACC-62; > 100 µM (inactive) in the test with SK-MEL-28; > 100 µM (inactive) in the test on OVCAR-5; 36.4 µM in the test on HCT-15; 79.1 µM (inactive) in the test with A549; 26.7 µM (inactive) with KM12. Besides, in the test with SK-MEL-5, the GI50 is 42.5 µM (inactive).

On to `COC(=O)c1c2c(c3[nH]c4ccccc4c3c1C(=O)OC)C(=O)C1=C(C2=O)C2(Cl)C(Cl)C(Cl)C1(Cl)C2(Cl)Cl` (configuration not stated), for which the GI50 in the test on Hs-578T is 3.13 µM (inactive); with Malme-3M, 1.82 µM (inactive); in the test on MDA-MB-231 it was 1.85 µM (inactive); with NCI-H460, 3.2 µM (inactive); with U-251, 2.42 µM (inactive); with OVCAR-8, 1.75 µM (inactive). Further, the GI50 with ACHN is 1.92 µM (inactive); in the test on MCF7 it was 0.705 µM (active); with SW-620, 0.353 µM (active); with K562, 2.01 µM (inactive); with RXF 393 it was 1.71 µM (inactive); in the test on OVCAR-4 it was 1.84 µM (inactive). Also, the GI50 with UACC-62 was 1.99 µM (inactive); in the test with SK-MEL-28, 1.56 µM (inactive); in the test on OVCAR-5 it was 4.69 µM (inactive); with HCT-15, 1.48 µM; in the test on A549 it was 3.21 µM (inactive); in the test with KM12, 2.54 µM (inactive). The GI50 in the test on SK-MEL-5 is 1.31 µM (inactive).

As to `Oc1ccc(-c2nc(-c3cccnc3)c(-c3ccc(F)cc3)[nH]2)cc1`, the GI50 in the test on Hs-578T is 20.9 µM (inactive); in the test with Malme-3M, 17.5 µM (inactive); in the test with MDA-MB-231, 18.9 µM (inactive); in the test with NCI-H460 it was 23.3 µM (inactive); in the test with U-251, 17.3 µM (inactive); in the test on OVCAR-8, 17.9 µM (inactive). In addition, the GI50 is 20.5 µM (inactive) in the test with ACHN; 16 µM (inactive) in the test on MCF7; 17.8 µM (inactive) with SW-620; 16 µM (inactive) in the test with K562; 17.6 µM (inactive) with RXF 393; 17.7 µM (inactive) in the test on OVCAR-4. The GI50 was 16 µM (inactive) with UACC-62; 19.9 µM (inactive) in the test with SK-MEL-28; 30.2 µM (inactive) with OVCAR-5; 22.7 µM in the test on HCT-15; 21.8 µM (inactive) in the test with A549; 18.2 µM (inactive) with KM12. Besides, in the test on SK-MEL-5, the GI50 was 16.3 µM (inactive).

For `CCCCCCCC1(N=[N+]=[N-])C(=O)c2ccccc2N(C)C1=O` (configuration not stated), the GI50 with Hs-578T is > 100 µM (inactive); in the test with Malme-3M it was > 100 µM (inactive); in the test with MDA-MB-231 it was > 100 µM (inactive); in the test on NCI-H460 it was > 100 µM (inactive); in the test on U-251 it was > 100 µM (inactive); with OVCAR-8, 86.5 µM (inactive). Besides, the GI50 is 75 µM (inactive) in the test with ACHN; > 100 µM (inactive) with MCF7; > 100 µM (inactive) in the test on SW-620; 69.8 µM (inactive) in the test on RXF 393; 87.3 µM (inactive) with OVCAR-4; 72.9 µM (inactive) with UACC-62. In addition, the GI50 in the test with SK-MEL-28 was > 100 µM (inactive); in the test on OVCAR-5, > 100 µM (inactive); with HCT-15, above 100 µM; in the test with A549, 68.5 µM (inactive); in the test with KM12, > 100 µM (inactive); in the test with SK-MEL-5, 69.8 µM (inactive).
